Laboratory results: article PMC10407959 (Journal of medicinal chemistry, 2023)
Read-outs that look alike come from different tables or passages of the source. Marks after values point to notes of the source that are not given here.

What was measured:
[1] = rat (r), ref Wen et al. 5; cited from earlier work
[2] = biological target: T1, CYP1A2 (Homo sapiens, UniProt P05177); settings: read-out: CYP1A2 (IC50); ref Wen et al. 5; cited from earlier work
T1 sequence (P05177 1-516): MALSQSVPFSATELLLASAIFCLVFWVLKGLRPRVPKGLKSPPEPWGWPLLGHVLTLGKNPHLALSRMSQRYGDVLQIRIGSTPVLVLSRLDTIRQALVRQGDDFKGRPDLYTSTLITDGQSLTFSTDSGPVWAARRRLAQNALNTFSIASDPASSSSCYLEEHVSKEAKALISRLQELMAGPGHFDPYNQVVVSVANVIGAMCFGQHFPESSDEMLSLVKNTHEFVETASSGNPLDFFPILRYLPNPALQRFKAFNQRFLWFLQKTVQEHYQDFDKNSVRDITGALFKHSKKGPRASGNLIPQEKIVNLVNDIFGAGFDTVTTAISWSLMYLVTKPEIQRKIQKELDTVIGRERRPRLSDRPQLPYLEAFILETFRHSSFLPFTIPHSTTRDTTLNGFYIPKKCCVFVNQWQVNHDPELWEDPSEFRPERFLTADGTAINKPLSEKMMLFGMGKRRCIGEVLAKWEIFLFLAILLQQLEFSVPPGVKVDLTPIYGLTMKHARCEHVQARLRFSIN

[3] = mouse (m), ref Wen et al. 5; cited from earlier work
[4] = rat, 3 mg/kg, i.p.; previous data; cited from earlier work
[5] = ref Wen et al. 5; cited from earlier work
[6] = biological target: CYP3A4 (Homo sapiens, UniProt P08684); settings: read-out: CYP3A4 (IC50); ref Wen et al. 5; cited from earlier work
[7] = biological target: hERG (Homo sapiens, UniProt Q12809); settings: read-out: hERG, IC50; fluorescent dye binding method; ref Wen et al. 5; cited from earlier work
[8] = biological target: CYP2C9 (Homo sapiens, UniProt P11712); settings: read-out: CYP2C9 (IC50); ref Wen et al. 5; cited from earlier work
[9] = biological target: T2, hP2Y14R (Homo sapiens, UniProt Q15391); test: cell-based
T2 sequence (Q15391 1-338): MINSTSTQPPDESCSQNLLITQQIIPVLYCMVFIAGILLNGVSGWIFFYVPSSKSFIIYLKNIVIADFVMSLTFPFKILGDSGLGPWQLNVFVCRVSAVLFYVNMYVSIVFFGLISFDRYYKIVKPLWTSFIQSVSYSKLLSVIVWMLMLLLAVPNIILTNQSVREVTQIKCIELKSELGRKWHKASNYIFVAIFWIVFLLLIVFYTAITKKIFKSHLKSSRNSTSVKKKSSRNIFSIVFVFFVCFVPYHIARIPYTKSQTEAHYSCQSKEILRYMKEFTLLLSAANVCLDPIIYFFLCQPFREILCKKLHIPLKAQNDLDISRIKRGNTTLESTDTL

[10] = pH 7.4, pION method, determined by Jai Research Foundation; ref Wen et al. 5; cited from earlier work
[11] = biological target: CYP2D6 (Homo sapiens, UniProt P10635); settings: read-out: CYP2D6 (IC50); ref Wen et al. 5; cited from earlier work
[12] = ref Wen et al. 5; cited from earlier work; remark: listed apart in the source
[13] = biological target: CYP2C19 (Homo sapiens, UniProt P33261); settings: read-out: CYP2C19 (IC50); ref Wen et al. 5; cited from earlier work
CYP2C19, sequence (P33261 whole entry): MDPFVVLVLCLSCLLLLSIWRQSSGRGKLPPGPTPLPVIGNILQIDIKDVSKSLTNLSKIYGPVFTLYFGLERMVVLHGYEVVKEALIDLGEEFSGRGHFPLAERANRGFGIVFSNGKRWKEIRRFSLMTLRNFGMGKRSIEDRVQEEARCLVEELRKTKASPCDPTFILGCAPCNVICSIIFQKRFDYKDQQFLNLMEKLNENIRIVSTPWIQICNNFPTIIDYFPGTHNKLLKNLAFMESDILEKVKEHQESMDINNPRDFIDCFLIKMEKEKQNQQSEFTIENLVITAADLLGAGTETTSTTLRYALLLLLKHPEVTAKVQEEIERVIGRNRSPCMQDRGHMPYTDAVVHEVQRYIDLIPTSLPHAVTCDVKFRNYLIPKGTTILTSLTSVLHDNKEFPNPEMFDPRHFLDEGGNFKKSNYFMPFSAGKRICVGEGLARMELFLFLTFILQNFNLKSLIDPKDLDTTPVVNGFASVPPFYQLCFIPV

CYP3A4, sequence (P08684 whole entry): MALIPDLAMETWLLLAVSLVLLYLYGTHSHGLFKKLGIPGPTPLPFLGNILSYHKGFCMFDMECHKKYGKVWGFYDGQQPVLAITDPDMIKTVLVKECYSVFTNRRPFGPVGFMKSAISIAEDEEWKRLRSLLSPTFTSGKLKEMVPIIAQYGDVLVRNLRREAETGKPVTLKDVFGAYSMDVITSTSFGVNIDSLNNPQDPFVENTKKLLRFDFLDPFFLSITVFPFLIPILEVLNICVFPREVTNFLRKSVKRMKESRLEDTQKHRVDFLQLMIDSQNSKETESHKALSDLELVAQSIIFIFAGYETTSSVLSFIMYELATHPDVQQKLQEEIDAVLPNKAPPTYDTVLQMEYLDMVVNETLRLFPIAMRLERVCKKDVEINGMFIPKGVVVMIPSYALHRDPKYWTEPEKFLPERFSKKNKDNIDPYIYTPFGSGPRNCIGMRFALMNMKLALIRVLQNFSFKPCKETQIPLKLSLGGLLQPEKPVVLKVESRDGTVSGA
hERG, sequence (Q12809 whole entry): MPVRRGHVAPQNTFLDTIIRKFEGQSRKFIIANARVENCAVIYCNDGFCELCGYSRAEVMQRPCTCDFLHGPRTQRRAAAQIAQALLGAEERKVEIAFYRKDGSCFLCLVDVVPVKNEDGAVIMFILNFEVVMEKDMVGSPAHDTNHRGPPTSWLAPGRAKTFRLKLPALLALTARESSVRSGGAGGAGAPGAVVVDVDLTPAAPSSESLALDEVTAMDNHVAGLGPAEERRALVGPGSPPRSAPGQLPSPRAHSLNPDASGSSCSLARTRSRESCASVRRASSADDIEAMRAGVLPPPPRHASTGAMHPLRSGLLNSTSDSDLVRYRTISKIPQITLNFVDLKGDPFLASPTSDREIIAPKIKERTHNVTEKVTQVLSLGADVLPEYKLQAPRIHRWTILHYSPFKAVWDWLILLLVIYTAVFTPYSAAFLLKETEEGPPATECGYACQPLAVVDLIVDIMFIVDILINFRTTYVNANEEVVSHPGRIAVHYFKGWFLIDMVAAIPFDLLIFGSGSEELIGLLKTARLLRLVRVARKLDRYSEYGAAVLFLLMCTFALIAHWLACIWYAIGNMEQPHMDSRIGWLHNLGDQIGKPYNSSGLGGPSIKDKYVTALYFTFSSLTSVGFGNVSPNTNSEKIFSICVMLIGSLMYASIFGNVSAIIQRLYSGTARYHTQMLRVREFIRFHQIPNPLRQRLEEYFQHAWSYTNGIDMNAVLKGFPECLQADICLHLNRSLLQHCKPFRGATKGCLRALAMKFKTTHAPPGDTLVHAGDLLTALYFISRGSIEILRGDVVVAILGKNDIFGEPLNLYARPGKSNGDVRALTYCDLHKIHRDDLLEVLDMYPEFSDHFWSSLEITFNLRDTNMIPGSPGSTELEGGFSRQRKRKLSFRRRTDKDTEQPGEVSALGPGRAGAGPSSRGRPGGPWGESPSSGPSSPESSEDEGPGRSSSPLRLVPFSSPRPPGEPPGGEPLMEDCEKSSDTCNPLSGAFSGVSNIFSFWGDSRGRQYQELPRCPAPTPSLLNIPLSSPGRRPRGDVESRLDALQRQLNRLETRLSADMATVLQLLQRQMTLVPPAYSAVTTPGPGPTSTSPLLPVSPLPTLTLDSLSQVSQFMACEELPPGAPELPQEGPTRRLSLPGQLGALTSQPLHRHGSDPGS
CYP2C9, sequence (P11712 whole entry): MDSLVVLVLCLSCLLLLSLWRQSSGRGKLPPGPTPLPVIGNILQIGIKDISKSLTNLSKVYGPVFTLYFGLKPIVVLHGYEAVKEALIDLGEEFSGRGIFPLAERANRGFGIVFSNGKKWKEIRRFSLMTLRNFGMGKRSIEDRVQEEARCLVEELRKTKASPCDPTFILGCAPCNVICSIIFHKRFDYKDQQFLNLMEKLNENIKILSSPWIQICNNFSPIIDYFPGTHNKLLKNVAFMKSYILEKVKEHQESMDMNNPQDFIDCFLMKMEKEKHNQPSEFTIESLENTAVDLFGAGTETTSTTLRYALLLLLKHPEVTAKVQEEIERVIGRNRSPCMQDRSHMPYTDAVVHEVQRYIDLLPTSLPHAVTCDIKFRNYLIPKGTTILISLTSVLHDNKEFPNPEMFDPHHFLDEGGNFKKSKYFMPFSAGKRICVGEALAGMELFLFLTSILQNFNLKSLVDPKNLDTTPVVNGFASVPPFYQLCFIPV
CYP2D6, sequence (P10635 whole entry): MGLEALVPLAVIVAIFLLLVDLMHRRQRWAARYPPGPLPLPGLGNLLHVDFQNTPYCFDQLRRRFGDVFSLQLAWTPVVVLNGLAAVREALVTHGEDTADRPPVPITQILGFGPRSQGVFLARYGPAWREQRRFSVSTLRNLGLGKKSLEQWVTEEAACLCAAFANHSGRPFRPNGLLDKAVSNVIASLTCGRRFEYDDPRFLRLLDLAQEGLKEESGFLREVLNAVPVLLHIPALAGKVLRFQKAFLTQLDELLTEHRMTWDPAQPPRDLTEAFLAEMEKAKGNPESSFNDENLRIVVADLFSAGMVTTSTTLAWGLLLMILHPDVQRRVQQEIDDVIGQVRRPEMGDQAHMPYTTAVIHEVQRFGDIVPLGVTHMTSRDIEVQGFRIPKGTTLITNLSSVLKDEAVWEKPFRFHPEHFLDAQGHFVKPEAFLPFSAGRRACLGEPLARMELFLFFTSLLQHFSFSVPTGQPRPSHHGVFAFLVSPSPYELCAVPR

**Q.** With `O=C(O)c1cc(-c2ccc([C@H]3C[C@H]4C[C@@H]3CN4)cc2)c2ccc(-c3ccc(C(F)(F)F)cc3)cc2c1` [2b, 4-(4-((1S,4S,5S)-2-Azabicyclo[2.2.1]heptan-5-yl)phenyl)-7-(4-(trifluoromethyl)phenyl)-2-naphthoic Acid] as the molecule, how does the “plasma stability (% remaining at 120 min)” value [1] read?
**A.** 82.8%

**Q.** And the IC50 [2]?
**A.** > 30 µM

**Q.** What about the “plasma stability (% remaining at 120 min)” value [3] of the same molecule?
**A.** 100%

**Q.** And the bioavailability [4]?
**A.** 43 %F

**Q.** And the “simulated intestinal fluid (% remaining at 120 min)” value [5]?
**A.** 99.1%

**Q.** What about the IC50 [6] of the same molecule?
**A.** > 30 µM

**Q.** And the IC50 [7]?
**A.** > 30 µM

**Q.** And the IC50 [8]?
**A.** > 30 µM

**Q.** What about the Ki [9] of the same molecule?
**A.** 0.00181 µM

**Q.** And the “solubility, (μg/mL)” value [10]?
**A.** 1.90 (pH 7.4)^d μg/mL

**Q.** What about the IC50 [11] of the same molecule?
**A.** > 30 µM

**Q.** What about the “simulated gastric fluid (% remaining at 120 min)” value [12] of the same molecule?
**A.** 100^a %

**Q.** What about the IC50 [13] of the same molecule?
**A.** > 30 µM
